For 32 molecules, IC50 results are on record in patent publication US20030004172A1, “Fused pyrimidinone matrix metalloproteinase inhibitors” (priority 2001, published 2003).

By IC50 is commonly meant the concentration needed to halve the response being measured.

This assay deals with MMP-13CD (catalytic domain of collagenase-3) (Homo sapiens, UniProt P45452). As to the kind of experiment: Thiopeptolide substrate hydrolysis inhibition assay, MMP-13CD. Type of assay: biochemical. The note with it: Table I; thiopeptolide substrate, HEPES pH 7.0, 22° C.; read-out: MMP-13CD IC50. An excerpt: Thiopeptolide substrates show virtually no decomposition or hydrolysis at or below neutral pH in the absence of a matrix metalloproteinase enzyme.

SMILES strings stand for the structures. A value given as a limit tells only on which side of the number the result lay.

Turning to `Cn1c(=O)n(Cc2ccccc2)c(=O)c2cc(C(=O)OCc3c(Cl)cccc3Cl)sc21` [Example 149, 3-Benzyl-1-methyl-2,4-dioxo-1,2,3,4-tetrahydro-thieno[2,3-d]pyrimidine-6-carboxylic acid 2,6-dichloro-benzyl ester], the IC50 came out at 15 µM. Regarding `CCCCOC(=O)c1cc2c(=O)n(Cc3ccccc3)c(=O)n(C)c2s1` [Example 150, 3-Benzyl-1-methyl-2,4-dioxo-1,2,3,4-tetrahydro-thieno[2,3-d]pyrimidine-6-carboxylic acid butyl ester], the IC50 turned out to be 13 µM. For `Cn1c(=O)n(Cc2ccccc2)c(=O)c2cc(C(=O)OCC3COc4ccccc4O3)sc21` (centres unmarked) [Example 151, 3-Benzyl-1-methyl-2,4-dioxo-1,2,3,4-tetrahydro-thieno[2,3-d]pyrimidine-6-carboxylic acid 2,3-dihydro-1,4-benzodioxin-2-ylmethyl ester], the IC50 was above 100 µM. As to `CCN(CC)CC(C)OC(=O)c1cc2c(=O)n(Cc3ccccc3)c(=O)n(C)c2s1` (centres unmarked) [Example 152, 3-Benzyl-1-methyl-2,4-dioxo-1,2,3,4-tetrahydro-thieno[2,3-d]pyrimidine-6-carboxylic acid 2-diethylamino-1-methyl-ethyl ester], the IC50 worked out at 9.9 µM. As for `Cn1c(=O)n(Cc2ccccc2)c(=O)c2cc(C(=O)OCc3ccc(F)cc3)sc21` [Example 153, 3-Benzyl-1-methyl-2,4-dioxo-1,2,3,4-tetrahydro-thieno[2,3-d]pyrimidine-6-carboxylic acid 4-fluoro-benzyl ester], the IC50 is 0.004 µM.

For the molecule `CC(C)c1ccc(COC(=O)c2cc3c(=O)n(Cc4ccccc4)c(=O)n(C)c3s2)cc1` [Example 154, 3-Benzyl-1-methyl-2,4-dioxo-1,2,3,4-tetrahydro-thieno[2,3-d]pyrimidine-6-carboxylic acid 4-isopropyl-benzyl ester], the IC50 was 32 µM.

As for `Cc1ccc(CCOC(=O)c2cc3c(=O)n(Cc4ccccc4)c(=O)n(C)c3s2)cc1` [Example 155, 3-Benzyl-1-methyl-2,4-dioxo-1,2,3,4-tetrahydro-thieno[2,3-d]pyrimidine-6-carboxylic acid 2-p-tolyl-ethyl ester], the 50% inhibitory concentration (IC50) came out at 62 µM. Consider `Cn1c(=O)n(Cc2ccccc2)c(=O)c2cc(C(=O)OCc3ccc(C(F)(F)F)cc3)sc21` [Example 156, 3-Benzyl-1-methyl-2,4-dioxo-1,2,3,4-tetrahydro-thieno[2,3-d]pyrimidine-6-carboxylic acid 4-trifluoromethyl-benzyl ester], for which the IC50 is 0.18 µM. Regarding `Cn1c(=O)n(Cc2ccccc2)c(=O)c2cc(C(=O)OCC3CCC3)sc21` [Example 157, 3-Benzyl-1-methyl-2,4-dioxo-1,2,3,4-tetrahydro-thieno[2,3-d]pyrimidine-6-carboxylic acid cyclobutylmethyl ester], the IC50 is above 100 µM. As to `Cn1c(=O)n(Cc2ccccc2)c(=O)c2cc(C(=O)OCc3c(F)cccc3F)sc21` [Example 158, 3-Benzyl-1-methyl-2,4-dioxo-1,2,3,4-tetrahydro-thieno[2,3-d]pyrimidine-6-carboxylic acid 2,6-difluoro-benzyl ester], the IC50 was found to be 16 µM. On to `Cn1c(=O)n(Cc2ccccc2)c(=O)c2cc(C(=O)OCCc3ccccc3O)sc21` [Example 159, 3-Benzyl-1-methyl-2,4-dioxo-1,2,3,4-tetrahydro-thieno[2,3-d]pyrimidine-6-carboxylic acid 2-(2-hydroxy-phenyl)-ethyl ester], for which the IC50 was determined as 30 µM. As for `CN1CCC(OC(=O)c2cc3c(=O)n(Cc4ccccc4)c(=O)n(C)c3s2)CC1` [Example 161, 3-Benzyl-1-methyl-2,4-dioxo-1,2,3,4-tetrahydro-thieno[2,3-d]pyrimidine-6-carboxylic acid 1-methyl-piperidin-4-yl ester], the figure is 11 µM.

As for `Cn1c(=O)n(Cc2ccccc2)c(=O)c2cc(C(=O)OCc3cccnc3)sc21` [Example 163, 3-Benzyl-1-methyl-2,4-dioxo-1,2,3,4-tetrahydro-thieno[2,3-d]pyrimidine-6-carboxylic acid pyridin-3-ylmethyl ester], the IC50 was found to be 0.016 µM.

Regarding `Cn1c(=O)n(Cc2ccccc2)c(=O)c2cc(C(=O)OCCCc3cccnc3)sc21` [Example 164, 3-Benzyl-1-methyl-2,4-dioxo-1,2,3,4-tetrahydro-thieno[2,3-d]pyrimidine-6-carboxylic acid 3-pyridin-3-yl-propyl ester], the IC50 amounted to 69 µM. On to `CC(CN(C)C)OC(=O)c1cc2c(=O)n(Cc3ccccc3)c(=O)n(C)c2s1` (centres unmarked) [Example 165, 3-Benzyl-1-methyl-2,4-dioxo-1,2,3,4-tetrahydro-thieno[2,3-d]pyrimidine-6-carboxylic acid 2-dimethylamino-1-methyl-ethyl ester], for which the IC50 stood at 20 µM. Turning to `COc1ccc(COC(=O)c2cc3c(=O)n(Cc4ccccc4)c(=O)n(C)c3s2)cc1` [Example 166, 3-Benzyl-1-methyl-2,4-dioxo-1,2,3,4-tetrahydro-thieno[2,3-d]pyrimidine-6-carboxylic acid 4-methoxy-benzyl ester], the IC50 amounted to 0.92 µM. As to `Cn1c(=O)n(Cc2ccccc2)c(=O)c2cc(C(=O)OC3CCOCC3)sc21` [Example 167, 3-Benzyl-1-methyl-2,4-dioxo-1,2,3,4-tetrahydro-thieno[2,3-d]pyrimidine-6-carboxylic acid tetrahydro-pyran-4-yl ester], the IC50 is 26 µM. For `Cn1c(=O)n(Cc2ccccc2)c(=O)c2cc(C(=O)OCc3ccccc3C(F)(F)F)sc21` [Example 169, 3-Benzyl-1-methyl-2,4-dioxo-1,2,3,4-tetrahydro-thieno[2,3-d]pyrimidine-6-carboxylic acid 2-trifluoromethyl-benzyl ester], the IC50 came to 30 µM. For the molecule `Cn1c(=O)n(Cc2ccccc2)c(=O)c2cc(C(=O)OCCOCc3ccccc3)sc21` [Example 170, 3-Benzyl-1-methyl-2,4-dioxo-1,2,3,4-tetrahydro-thieno[2,3-d]pyrimidine-6-carboxylic acid 2-benzyloxy-ethyl ester], the IC50 worked out at 0.72 µM.

Regarding `Cn1c(=O)n(Cc2ccccc2)c(=O)c2cc(C(=O)OCC(Cl)(Cl)Cl)sc21` [Example 171, 3-Benzyl-1-methyl-2,4-dioxo-1,2,3,4-tetrahydro-thieno[2,3-d]pyrimidine-6-carboxylic acid 2,2,2-trichloro-ethyl ester], the IC50 came out at 14 µM. Turning to `Cn1c(=O)n(Cc2ccccc2)c(=O)c2cc(C(=O)OCCc3ccccc3)sc21` [Example 172, 3-Benzyl-1-methyl-2,4-dioxo-1,2,3,4-tetrahydro-thieno[2,3-d]pyrimidine-6-carboxylic acid phenethyl ester], the IC50 worked out at 32 µM. As for `CCC1(COC(=O)c2cc3c(=O)n(Cc4ccccc4)c(=O)n(C)c3s2)COC1` [Example 173, 3-Benzyl-1-methyl-2,4-dioxo-1,2,3,4-tetrahydro-thieno[2,3-d]pyrimidine-6-carboxylic acid 3-ethyl-oxetan-3-ylmethyl ester], the IC50 was above 100 µM.

On to `Cn1c(=O)n(Cc2ccccc2)c(=O)c2cc(C(=O)OCCN3CCOCC3)sc21` [Example 174, 3-Benzyl-1-methyl-2,4-dioxo-1,2,3,4-tetrahydro-thieno[2,3-d]pyrimidine-6-carboxylic acid 2-morpholin-4-yl-ethyl ester], for which the IC50 was above 100 µM. Turning to `Cn1c(=O)n(Cc2ccccc2)c(=O)c2cc(C(=O)OCCN3CCCC3)sc21` [Example 175, 3-Benzyl-1-methyl-2,4-dioxo-1,2,3,4-tetrahydro-thieno[2,3-d]pyrimidine-6-carboxylic acid 2-pyrrolidin-1-yl-ethyl ester], the IC50 was above 100 µM.

Consider `CCOCCOCCOC(=O)c1cc2c(=O)n(Cc3ccccc3)c(=O)n(C)c2s1` [Example 177, 3-Benzyl-1-methyl-2,4-dioxo-1,2,3,4-tetrahydro-thieno[2,3-d]pyrimidine-6-carboxylic acid 2-(2-ethoxy-ethoxy)-ethyl ester], for which the IC50 was above 100 µM. For the molecule `Cn1c(=O)n(Cc2ccccc2)c(=O)c2cc(C(=O)OCC3CCCCO3)sc21` (centres unmarked) [Example 178, 3-Benzyl-1-methyl-2,4-dioxo-1,2,3,4-tetrahydro-thieno[2,3-d]pyrimidine-6-carboxylic acid tetrahydro-pyran-2-ylmethyl ester], the IC50 was above 100 µM. Turning to `Cn1c(=O)n(Cc2ccccc2)c(=O)c2cc(C(=O)OCc3ccc([N+](=O)[O-])cc3)sc21` [Example 179, 3-Benzyl-1-methyl-2,4-dioxo-1,2,3,4-tetrahydro-thieno[2,3-d]pyrimidine-6-carboxylic acid 4-nitro-benzyl ester], the IC50 amounted to 0.25 µM. Regarding `CCCCCOC(=O)c1cc2c(=O)n(Cc3ccccc3)c(=O)n(C)c2s1` [Example 180, 3-Benzyl-1-methyl-2,4-dioxo-1,2,3,4-tetrahydro-thieno[2,3-d]pyrimidine-6-carboxylic acid pentyl ester], the IC50 worked out at 30 µM. Take `Cn1c(=O)n(Cc2ccccc2)c(=O)c2cc(C(=O)OCCCc3ccccc3)sc21` [Example 181, 3-Benzyl-1-methyl-2,4-dioxo-1,2,3,4-tetrahydro-thieno[2,3-d]pyrimidine-6-carboxylic acid 3-phenyl-propyl ester]: the IC50 was above 100 µM.

Turning to `Cn1c(=O)n(Cc2ccccc2)c(=O)c2cc(C(=O)OCc3cccc(Oc4ccccc4)c3)sc21` [Example 182, 3-Benzyl-1-methyl-2,4-dioxo-1,2,3,4-tetrahydro-thieno[2,3-d]pyrimidine-6-carboxylic acid 3-phenoxy-benzyl ester], the IC50 was 8.6 µM. As for `COc1cc(COC(=O)c2cc3c(=O)n(Cc4ccccc4)c(=O)n(C)c3s2)cc(OC)c1` [Example 183, 3-Benzyl-1-methyl-2,4-dioxo-1,2,3,4-tetrahydro-thieno[2,3-d]pyrimidine-6-carboxylic acid 3,5-dimethoxy-benzyl ester], the figure is 30 µM; as for `CC(C)CCOC(=O)c1cc2c(=O)n(Cc3ccccc3)c(=O)n(C)c2s1` [Example 184, 3-Benzyl-1-methyl-2,4-dioxo-1,2,3,4-tetrahydro-thieno[2,2-d]pyrimidine-6-caboxylic acid 3-methyl-butyl ester], above 100 µM.
